The text below walks through data of ChEMBL document CHEMBL3046160, “Insecticidal Activities of the Enantiomers of Asymmetric 1-[1-(6-Chloro-3-pyridyl)ethyl]-2-nitroiminoimidazolidine against American Cockroach, Cucurbit Leaf Beetle, Green Rice Leafhopper and Green Peach Aphid Following Injection, Dipping and Spraying” (2004).

Assay [1] deals with Periplaneta americana. Put plainly: Insecticidal activity against Periplaneta americana (American cockroach) compound administered through injection into abdomen. The format is functional.
Assay [2] concerns Myzus persicae. Put plainly: Insecticidal activity against Myzus persicae (green peach aphid) in two-leaf stage eggplant assessed as mortality at 1.6 ppm after 7 days. The format is functional. To be noted: 168 h.
Assay [3] relates to Nephotettix cincticeps. The experiment in a line: Insecticidal activity against Nephotettix cincticeps (green rice leafhopper) in compound-sprayed rice plant assessed as mortality at 1.6 ppm after 2 to 7 days. In kind it is functional.
Assay [4] concerns Aulacophora. The experiment in a line: Insecticidal activity against second-instar larvae of Aulacophora femoralis (cucurbit leaf beetle) in compound-treated cucumber leaf assessed as mortality at 1.6 ppm after 2 to 7 days. In kind it is functional.
In assay [5] the target is T1, Nicotinic acetylcholine receptor alpha 5 subunit (Musca domestica) (UniProt A9XFY4).
T1 sequence (whole entry): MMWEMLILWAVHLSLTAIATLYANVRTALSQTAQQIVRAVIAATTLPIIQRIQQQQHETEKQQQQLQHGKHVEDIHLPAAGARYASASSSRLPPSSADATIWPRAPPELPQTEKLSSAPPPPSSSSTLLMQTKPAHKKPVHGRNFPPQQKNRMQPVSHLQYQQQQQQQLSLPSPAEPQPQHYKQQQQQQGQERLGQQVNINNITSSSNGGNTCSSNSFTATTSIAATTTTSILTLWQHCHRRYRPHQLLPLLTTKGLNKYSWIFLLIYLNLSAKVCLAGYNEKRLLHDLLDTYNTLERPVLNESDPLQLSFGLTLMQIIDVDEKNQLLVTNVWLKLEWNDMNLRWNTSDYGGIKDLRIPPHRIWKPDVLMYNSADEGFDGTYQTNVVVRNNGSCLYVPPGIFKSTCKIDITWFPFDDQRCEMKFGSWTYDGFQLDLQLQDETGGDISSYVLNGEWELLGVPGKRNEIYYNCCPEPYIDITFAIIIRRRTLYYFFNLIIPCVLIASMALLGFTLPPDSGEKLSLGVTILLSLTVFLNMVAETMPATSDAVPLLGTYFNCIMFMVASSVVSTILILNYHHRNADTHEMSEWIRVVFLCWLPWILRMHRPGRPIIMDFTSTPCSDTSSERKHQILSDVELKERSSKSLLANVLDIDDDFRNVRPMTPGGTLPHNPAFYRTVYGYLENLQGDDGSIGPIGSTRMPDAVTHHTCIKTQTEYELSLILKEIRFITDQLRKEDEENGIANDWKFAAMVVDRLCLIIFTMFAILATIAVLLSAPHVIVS
The experiment in a line: Displacement of [3H]IMI from Musca domestica (house fly) head membrane nicotinic acetylcholine receptor. For orientation: Loss of bound radioactivity is the signal in a displacement assay; it reports binding, not function.

In assay [6] the test system is Nephotettix cincticeps. Put plainly: Insecticidal activity against Nephotettix cincticeps (green rice leafhopper) in compound-sprayed rice plant assessed as mortality at 8 ppm after 2 to 7 days. The format is functional.
Assay [7] has as its system Aulacophora. Put plainly: Insecticidal activity against second-instar larvae of Aulacophora femoralis (cucurbit leaf beetle) in compound-treated cucumber leaf assessed as mortality at 8 ppm after 2 to 7 days. The format is functional.
For assay [8], the system named is Periplaneta americana. Put plainly: Insecticidal activity against Periplaneta americana (American cockroach) compound administered through injection into abdomen in presence of piperonyl butoxide and NIA 16388. In kind it is functional.
The subject of assay [9] is Musca domestica. Put plainly: Insecticidal activity against Musca domestica (house fly) compound administered through injection in presence of piperonyl butoxide and NIA 16388. In kind it is functional.
For assay [10], the system named is Musca domestica. Put plainly: Insecticidal activity against Musca domestica (house fly) compound administered through injection. In kind it is functional.
Assay [11] has as its system Periplaneta americana. The experiment in a line: Neuroblocking potency in Periplaneta americana (American cockroach) admoninal central nerve cod. The format is functional.
In assay [12] the test system is Myzus persicae. Put plainly: Insecticidal activity against Myzus persicae (green peach aphid) in two-leaf stage eggplant assessed as mortality at 8 ppm after 7 days. The following applies: 168 h. The format is functional.

For `C[C@H](c1ccc(Cl)nc1)N1CCN/C1=N\[N+](=O)[O-]` [(R)-METHYL-IMIDACLOPRID], the MLD in the assay on Periplaneta americana [1] worked out at 42 nmol; in the assay with Periplaneta americana [8], 0.83 nmol; with Musca domestica [9], 2.3 pmol; with Musca domestica [10] it was 55 pmol. Also, the mortality (usually the percentage killed) at 1.6 ppm with Myzus persicae [2] came to 60%; in the assay on Nephotettix cincticeps [3], 100%; in the assay with Aulacophora [4], 50%. For the same compound, the figures for the Activity (in [5]; with Periplaneta americana [11]) were 0.95 µM and 73 µM, respectively. The values for the mortality at 8 ppm with Nephotettix cincticeps [6], in the assay with Aulacophora [7] and in the assay with Myzus persicae [12] were 100%, 90% and 90%, respectively.
Regarding `C[C@@H](c1ccc(Cl)nc1)N1CCN/C1=N\[N+](=O)[O-]` [(S)-METHYL-IMIDACLOPRID], the MLD in the assay on Periplaneta americana [1] was 30 nmol; in the assay with Periplaneta americana [8], 0.93 nmol; in the assay on Musca domestica [9] it was 1.1 pmol; in the assay with Musca domestica [10], 45 pmol. Besides, the figures for the mortality at 1.6 ppm in the assay on Myzus persicae [2], in the assay on Nephotettix cincticeps [3] and in the assay on Aulacophora [4] were 40%, 90% and 100%, respectively. Further, the Activity in assay [5] was 0.19 µM; with Periplaneta americana [11], 5.9 µM. Besides, the mortality at 8 ppm in the assay with Nephotettix cincticeps [6] came out at 100%; with Aulacophora [7], 100%; in the assay with Myzus persicae [12], 60%.
In the case of `O=[N+]([O-])/N=C1\NCCN1Cc1ccc(Cl)nc1` [IMIDACLOPRID], the MLD is reported as 1.1 nmol in the assay with Periplaneta americana [1], 0.07 nmol in the assay with Periplaneta americana [8], 0.26 pmol with Musca domestica [9] and 2.2 pmol in the assay on Musca domestica [10]. In addition, the mortality at 1.6 ppm with Myzus persicae [2], with Nephotettix cincticeps [3] and in the assay with Aulacophora [4] was 100% in each case. Moreover, the Activity in assay [5] was 0.02 µM; in the assay on Periplaneta americana [11] it was 2.3 µM. The mortality at 8 ppm with Nephotettix cincticeps [6], in the assay on Aulacophora [7] and with Myzus persicae [12] was 100% in each case.
For the compound `CN1CCC[C@H]1c1cccnc1` [NICOTINE], the MLD with Periplaneta americana [1] worked out at 490 nmol; with Periplaneta americana [8], 310 nmol. The compound also came in with an Activity in assay [5] of 11.9 µM.
As for `CN1CCC[C@@H]1c1cccnc1` [R-NICOTINE], the MLD with Periplaneta americana [1] is reported as 320 nmol; with Periplaneta americana [8], 160 nmol. The compound also had an Activity in assay [5] of 422 µM.
